# Experimental data published in ChEMBL document CHEMBL1201862, “PubChem BioAssay data set” (2004).
#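 Interpolation was linear, between the two tested concentrations surrounding the appropriate level; five concentrations were tested over 48 hours in 96-well plates. GI50 marks 50% less growth.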 Activity calls are given as the source filed them. No stated cut-off is given here; in the data, active = GI50 up to about 1.1 µM and inactive = higher.
# Columns and labels:
# Experiment in all cases: growth of human tumour cells (NCI), 48 h
# A549 = tested on: A549
# COLO 205 = tested on: COLO 205
# HCC 2998 = tested on: HCC 2998
# HCT-15 = tested on: HCT-15
# K562 = tested on: K562
# MOLT-4 = tested on: MOLT-4
# NCI-H23 = tested on: NCI-H23
# NCI-H460 = tested on: NCI-H460
# NCI-H522 = tested on: NCI-H522
# OVCAR-3 = tested on: OVCAR-3
# OVCAR-4 = tested on: OVCAR-4
# OVCAR-8 = tested on: OVCAR-8
# RPMI-8226 = tested on: RPMI-8226
# SF-539 = tested on: SF-539
# SK-MEL-2 = tested on: SK-MEL-2
# SW-620 = tested on: SW-620
# UACC-257 = tested on: UACC-257
Structure (SMILES),GI50 (A549),GI50 (COLO 205),GI50 (HCC 2998),GI50 (HCT-15) [µM],GI50 (K562),GI50 (MOLT-4),GI50 (NCI-H23),GI50 (NCI-H460),GI50 (NCI-H522),GI50 (OVCAR-3),GI50 (OVCAR-4),GI50 (OVCAR-8),GI50 (RPMI-8226),GI50 (SF-539),GI50 (SK-MEL-2),GI50 (SW-620),GI50 (UACC-257)
c1ccc2cc(C3NCCc4nc[nH]c43)ccc2c1 (stereo not given),> 100 µM (inactive),24.9 µM (inactive),59.6 µM (inactive),42.6,29.6 µM (inactive),25.1 µM (inactive),> 100 µM (inactive),52 µM (inactive),34 µM (inactive),61.2 µM (inactive),57 µM (inactive),89.7 µM (inactive),45.5 µM (inactive),89.1 µM (inactive),72.8 µM (inactive),61.8 µM (inactive),26.7 µM (inactive)
COc1ccc(N2C(=O)C3CC(c4ccc(C)cc4)c4c([nH]c5ccccc45)C3C2=O)cc1 (stereo not given),12.2 µM (inactive),20.7 µM (inactive),52.7 µM (inactive),8.61,> 63 µM (inactive),21 µM (inactive),> 45.8 µM (inactive),4.9 µM (inactive),19.5 µM (inactive),5.65 µM (inactive),13.9 µM (inactive),5.43 µM (inactive),–,23.7 µM (inactive),> 75.2 µM (inactive),6.22 µM (inactive),> 100 µM (inactive)
COc1nc2c(c(O)c(C)c(=O)n2OC2OC(COC(C)=O)C(OC(C)=O)C(OC(C)=O)C2OC(C)=O)c(=O)n1C (stereo not given),> 100 µM (inactive),> 100 µM (inactive),> 100 µM (inactive),> 100,> 100 µM (inactive),> 100 µM (inactive),> 100 µM (inactive),> 100 µM (inactive),44.8 µM (inactive),–,> 100 µM (inactive),> 100 µM (inactive),–,> 100 µM (inactive),> 100 µM (inactive),> 100 µM (inactive),–
COc1cc(/C=N/N=C(\N)NO)ccc1O,47.3 µM (inactive),> 100 µM (inactive),–,50,33.3 µM (inactive),65.9 µM (inactive),57.1 µM (inactive),38.8 µM (inactive),46.3 µM (inactive),–,> 100 µM (inactive),63.7 µM (inactive),> 100 µM (inactive),46.3 µM (inactive),69.3 µM (inactive),68.2 µM (inactive),> 100 µM (inactive)
CC(=O)OC1CC2(C)OC(Cc3ccccc32)O1 (stereo not given),> 100 µM (inactive),> 100 µM (inactive),> 100 µM (inactive),–,> 100 µM (inactive),> 100 µM (inactive),> 100 µM (inactive),> 100 µM (inactive),> 100 µM (inactive),> 100 µM (inactive),–,> 100 µM (inactive),> 100 µM (inactive),> 100 µM (inactive),> 100 µM (inactive),> 100 µM (inactive),> 100 µM (inactive)
CN1NC2(CCCCC2)ON=C1c1ccccc1,> 100 µM (inactive),> 100 µM (inactive),–,> 100,> 100 µM (inactive),> 100 µM (inactive),> 100 µM (inactive),> 100 µM (inactive),> 100 µM (inactive),> 100 µM (inactive),> 100 µM (inactive),> 100 µM (inactive),–,> 100 µM (inactive),–,> 100 µM (inactive),> 100 µM (inactive)
Cc1ccc(S(=O)(=O)C(CC(NC=O)S(=O)(=O)c2ccc(C)cc2)NC=O)cc1 (stereo not given),> 100 µM (inactive),> 100 µM (inactive),> 100 µM (inactive),> 100,> 100 µM (inactive),> 100 µM (inactive),> 100 µM (inactive),> 100 µM (inactive),> 100 µM (inactive),> 100 µM (inactive),> 100 µM (inactive),> 100 µM (inactive),> 100 µM (inactive),> 100 µM (inactive),–,> 100 µM (inactive),> 100 µM (inactive)
Cc1cc(=O)n(-c2ccccc2C)c(C)n1,> 100 µM (inactive),> 100 µM (inactive),> 100 µM (inactive),> 100,> 100 µM (inactive),> 100 µM (inactive),> 100 µM (inactive),> 100 µM (inactive),> 100 µM (inactive),> 100 µM (inactive),> 100 µM (inactive),> 100 µM (inactive),–,> 100 µM (inactive),> 100 µM (inactive),> 100 µM (inactive),> 100 µM (inactive)
C=CCNC(=S)NNC(=O)c1c(C)nc2sccn12,> 100 µM (inactive),> 100 µM (inactive),> 100 µM (inactive),> 100,> 100 µM (inactive),> 100 µM (inactive),> 100 µM (inactive),> 100 µM (inactive),> 100 µM (inactive),> 100 µM (inactive),–,> 100 µM (inactive),–,> 100 µM (inactive),> 100 µM (inactive),> 100 µM (inactive),> 100 µM (inactive)
CCc1ccccc1NC(=O)C1=C(C)NC(C)=C(C(=O)Nc2c(CC)cccc2CC)C1c1ccc2c(c1)OCO2 (stereo not given),17.6 µM (inactive),19.5 µM (inactive),16.5 µM (inactive),–,22.7 µM (inactive),19.1 µM (inactive),16.7 µM (inactive),16.6 µM (inactive),16.2 µM (inactive),17.8 µM (inactive),15.2 µM (inactive),25.8 µM (inactive),15.8 µM (inactive),21.2 µM (inactive),15.2 µM (inactive),18.1 µM (inactive),17.7 µM (inactive)
Cc1ccccc1C1OC(=O)c2ccccc21 (stereo not given),> 100 µM (inactive),> 100 µM (inactive),> 100 µM (inactive),> 100,> 100 µM (inactive),> 100 µM (inactive),> 100 µM (inactive),> 100 µM (inactive),> 100 µM (inactive),> 100 µM (inactive),–,83.8 µM (inactive),–,> 100 µM (inactive),> 100 µM (inactive),> 100 µM (inactive),–
CSc1nnc(C(C#N)C#N)nn1,> 100 µM (inactive),> 100 µM (inactive),> 100 µM (inactive),> 100,> 100 µM (inactive),> 100 µM (inactive),> 100 µM (inactive),> 100 µM (inactive),> 100 µM (inactive),> 100 µM (inactive),> 100 µM (inactive),> 100 µM (inactive),> 100 µM (inactive),> 100 µM (inactive),–,> 100 µM (inactive),> 100 µM (inactive)
COc1cc2c(c(OC)c1OC)-c1ccc(SC)c(=O)cc1[C@@H](NCc1ccc([N+](=O)[O-])cc1)CC2,0.00748 µM (active),0.00396 µM (active),0.00299 µM (active),0.00487,0.00318 µM (active),0.00478 µM (active),0.00324 µM (active),0.00318 µM (active),0.00313 µM (active),0.003 µM (active),–,0.00578 µM (active),0.00349 µM (active),0.00271 µM (active),0.0113 µM (active),0.00342 µM (active),0.00516 µM (active)
